Laboratory results reported in the NIST ThermoML archive (doi:10.1016/j.jct.2014.07.024).
Numbers after ± are expanded uncertainties.

Assay: excess molar enthalpy (molar enthalpy of mixing); xn = mol fraction of the nth substance listed
Details: 101 kPa, Crystal, Calvet calorimetry

O=[N+]([O-])[O-].[Rb+] [rubidium nitrate] + O=[N+]([O-])[O-].[Cs+]
excess molar enthalpy [kcal/mol]
Details	298.15 K	473.15 K
x1 = 0.1	0.12 ± 0.0478	–
x1 = 0.16	–	0.0619 ± 0.0134
x1 = 0.23	0.263 ± 0.0478	–
x1 = 0.32	0.287 ± 0.0478	–
x1 = 0.36	–	0.132 ± 0.0287
x1 = 0.5	0.335 ± 0.0478	0.139 ± 0.0287
x1 = 0.57	0.335 ± 0.0478	–
x1 = 0.65	0.311 ± 0.0478	–
x1 = 0.68	0.287 ± 0.0478	–
x1 = 0.73	–	0.103 ± 0.022
x1 = 0.8	0.215 ± 0.0478	–
